Experimental data from US20240294508A1, “RIP1 MODULATORS INCLUDING AZETIDINE CYCLIC UREAS, PREPARATIONS, AND USES THEREOF” (SIRONAX LTD., priority 2021, published 2024).

Test system: HT-29 cells
Test: HT29 cells 0FBS assay in vitro: TNF-α/SMAC mimetic/zVAD-FMK induced necroptosis, CellTiter-Glo cell viability (RIP1 inhibitory activity)
Type: cell-based
Conditions: Homo sapiens, FBS free medium, TNF-α (10 ng/ml) + SMAC mimetic (6 uM) + zVAD-FMK (10 μM), 20 hours, geometric mean EC50
How it was run: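 HT-29 cells (5,000/well, overnight) switched to FBS-free McCOY's 5A with TNF-α (10 ng/ml), SMAC mimetic (6 uM) and zVAD-FMK (10 μM) to drive necroptosis, plus compound, for 20 hours at 37° C. Viability read by CellTiter-Glo luminescence; geometric mean EC50 from 10-point duplicate dose-response.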

SMILES | EC50 [nM]
Cc1nc(C2CC=NN2C(=O)N2CC(Oc3cc(-c4c(C)cnn4C)ncc3F)C2)co1 (stereo not drawn) [Compound 90, (3-((2-(1,4-dimethyl-1H-pyrazol-5-yl)-5-fluoropyridin-4-yl)oxy)azetidin-1-yl)(5-(2-methyloxazol-4-yl)-4,5-dihydro-1H-pyrazol-1-yl)methanone] | 0.1 to 100
Cc1nc(C2CC=NN2C(=O)N2CC(Oc3cc(-c4c(C)cnn4C)ncc3Cl)C2)cs1 (stereo not drawn) [Compound 127, (3-((5-chloro-2-(1,4-dimethyl-1H-pyrazol-5-yl)pyridin-4-yl)oxy)azetidin-1-yl)(5-(2-methylthiazol-4-yl)-4,5-dihydro-1H-pyrazol-1-yl)methanone] | 1000 to 10000
Cc1c(C#N)nn(C)c1-c1ccc(F)c(OC2CN(C(=O)N3N=CC[C@H]3c3cc(F)cc(C#N)c3)C2)n1 [Compound 56, (S)-5-(6-((1-(5-(3-cyano-5-fluorophenyl)-4,5-dihydro-1H-pyrazole-1-carbonyl)azetidin-3-yl)oxy)-5-fluoropyridin-2-yl)-1,4-dimethyl-1H-pyrazole-3-carbonitrile] | 0.1 to 100
Cc1c(C#N)nn(C)c1-c1cc(OC2CN(C(=O)N3N=CC[C@H]3c3cc(F)cc(C#N)c3)C2)c(F)cn1 [Compound 51, (S)-5-(4-((1-(5-(3-cyano-5-fluorophenyl)-4,5-dihydro-1H-pyrazole-1-carbonyl)azetidin-3-yl)oxy)-5-fluoropyridin-2-yl)-1,4-dimethyl-1H-pyrazole-3-carbonitrile] | 0.1 to 100
Cc1nc(C2CC=NN2C(=O)N2CC(Oc3cc(-c4ccnn4C)c(F)cc3F)C2)cs1 (stereo not drawn) [Compound 132, (3-(2,4-difluoro-5-(1-methyl-1H-pyrazol-5-yl)phenoxy)azetidin-1-yl)(5-(2-methylthiazol-4-yl)-4,5-dihydro-1H-pyrazol-1-yl)methanone] | 0.1 to 100
CNC(=O)c1c(C)nn(-c2cc(OC3CN(C(=O)N4N=CC[C@H]4c4ccccc4)C3)c(F)cn2)c1C [Compound 78] | 0.1 to 100
Cc1ncc(C2CC=NN2C(=O)N2CC(Oc3cc(-c4c(C)c(N)nn4C)ncc3F)C2)s1 (stereo not drawn) [Compound 107, (3-((2-(3-amino-1,4-dimethyl-1H-pyrazol-5-yl)-5-fluoropyridin-4-yl)oxy)azetidin-1-yl)(5-(2-methylthiazol-5-yl)-4,5-dihydro-1H-pyrazol-1-yl) methanone] | 0.1 to 100
Cc1nc(C)c(C2CC=NN2C(=O)N2CC(Oc3cc(-c4c(C)cnn4C)ncc3F)C2)s1 (stereo not drawn) [Compound 119, (3-((2-(1,4-dimethyl-1H-pyrazol-5-yl)-5-fluoropyridin-4-yl)oxy)azetidin-1-yl)(5-(2,4-dimethylthiazol-5-yl)-4,5-dihydro-1H-pyrazol-1-yl)methanone] | 100 to 1000
Cn1ncc(Cl)c1-c1cc(OC2CN(C(=O)N3N=CC[C@H]3c3cc(F)cc(C#N)c3)C2)c(F)cn1 [Compound 6, (S)-3-(1-(3-((2-(4-chloro-1-methyl-1H-pyrazol-5-yl)-5-fluoropyridin-4-yl)oxy)azetidine-1-carbonyl)-4,5-dihydro-1H-pyrazol-5-yl)-5-fluorobenzonitrile] | 0.1 to 100
Cc1nn(-c2cc(OC3CN(C(=O)N4N=CC[C@H]4c4cc(F)cc(C#N)c4)C3)c(F)cn2)c(C)c1C(=O)O [Compound 83, (S)-1-(4-((1-(5-(3-cyano-5-fluorophenyl)-4,5-dihydro-1H-pyrazole-1-carbonyl)azetidin-3-yl)oxy)-5-fluoropyridin-2-yl)-3,5-dimethyl-1H-pyrazole-4-carboxylic acid] | 0.1 to 100
Cc1cnn(C)c1-c1cc(OC2CN(C(=O)N3N=CCC3c3cscn3)C2)c(F)cn1 (stereo not drawn) [Compound 95, (3-((2-(1,4-dimethyl-1H-pyrazol-5-yl)-5-fluoropyridin-4-yl)oxy)azetidin-1-yl)(5-(thiazol-4-yl)-4,5-dihydro-1H-pyrazol-1-yl)methanone] | 0.1 to 100
Cc1nn(-c2cc(OC3CN(C(=O)N4N=CC[C@H]4c4cccc(F)c4)C3)c(F)cn2)c(C)c1S(N)(=O)=O [Compound 114, (S)-1-(5-fluoro-4-((1-(5-(3-fluorophenyl)-4,5-dihydro-1H-pyrazole-1-carbonyl)azetidin-3-yl)oxy)pyridin-2-yl)-3,5-dimethyl-1H-pyrazole-4-sulfonamide] | 0.1 to 100
Cc1cnn(C)c1-c1cc(OC2CN(C(=O)N3N=CCC3c3ccn(C)c3)C2)c(F)cn1 (stereo not drawn) [Compound 145, (3-((2-(1,4-dimethyl-1H-pyrazol-5-yl)-5-fluoropyridin-4-yl)oxy)azetidin-1-yl)(5-(1-methyl-1H-pyrrol-3-yl)-4,5-dihydro-1H-pyrazol-1-yl)methanone] | 0.1 to 100
Cc1cnn(C)c1-c1nc(OC2CN(C(=O)N3N=CC[C@H]3c3cncc(F)c3)C2)sc1C#N [Compound 152, (S)-4-(1,4-dimethyl-1H-pyrazol-5-yl)-2-((1-(5-(5-fluoropyridin-3-yl)-4,5-dihydro-1H-pyrazole-1-carbonyl)azetidin-3-yl)oxy)thiazole-5-carbonitrile] | 0.1 to 100
Cn1ncc(Cl)c1-c1ncc(F)c(OC2CN(C(=O)N3N=CC[C@H]3c3cncc(F)c3)C2)n1 [Compound 32, (S)-(3-((2-(4-chloro-1-methyl-1H-pyrazol-5-yl)-5-fluoropyrimidin-4-yl)oxy)azetidin-1-yl)(5-(5-fluoropyridin-3-yl)-4,5-dihydro-1H-pyrazol-1-yl)methanone] | 0.1 to 100
Cc1cnn(C)c1-c1ccc(F)c(OC2CN(C(=O)N3N=CC[C@H]3c3cncc(C#N)c3)C2)n1 [Compound 55, (S)-5-(1-(3-((6-(1,4-dimethyl-1H-pyrazol-5-yl)-3-fluoropyridin-2-yl)oxy)azetidine-1-carbonyl)-4,5-dihydro-1H-pyrazol-5-yl)nicotinonitrile] | 0.1 to 100
Cc1nn(-c2cc(OC3CN(C(=O)N4N=CC[C@H]4c4cccc(F)c4)C3)c(F)cn2)c(C)c1C(=O)NC1COC1 [Compound 77, (S)-1-(5-fluoro-4-((1-(5-(3-fluorophenyl)-4,5-dihydro-1H-pyrazole-1-carbonyl)azetidin-3-yl)oxy)pyridin-2-yl)-3,5-dimethyl-N-(oxetan-3-yl)-1H-pyrazole-4-carboxamide] | 0.1 to 100
Cc1cnn(C)c1-c1cc(OC2CN(C(=O)N3N=CCC3c3cc(F)cc(F)c3F)C2)c(F)cn1 (stereo not drawn) [Compound 116, (3-((2-(1,4-dimethyl-1H-pyrazol-5-yl)-5-fluoropyridin-4-yl)oxy)azetidin-1-yl)(5-(2,3,5-trifluorophenyl)-4,5-dihydro-1H-pyrazol-1-yl)methanone] | 0.1 to 100
Cc1nn(-c2cc(OC3CN(C(=O)N4N=CC[C@H]4c4cc(F)cc(F)c4F)C3)c(F)cn2)c(C)c1C(=O)O [Compound 104, (S)-1-(5-fluoro-4-((1-(5-(2,3,5-trifluorophenyl)-4,5-dihydro-1H-pyrazole-1-carbonyl)azetidin-3-yl)oxy)pyridin-2-yl)-3,5-dimethyl-1H-pyrazole-4-carboxylic acid] | 0.1 to 100
Cc1nn(-c2cc(OC3CN(C(=O)N4N=CC[C@@H]4c4cc(F)cc(F)c4F)C3)c(F)cn2)c(C)c1C(=O)O [Compound 105, (R)-1-(5-fluoro-4-((1-(5-(2,3,5-trifluorophenyl)-4,5-dihydro-1H-pyrazole-1-carbonyl)azetidin-3-yl)oxy)pyridin-2-yl)-3,5-dimethyl-1H-pyrazole-4-carboxylic acid] | 1000 to 10000
Cn1nccc1-c1cc(OC2CN(C(=O)N3N=CC[C@H]3c3cc(F)cc(C#N)c3)C2)c(F)cn1 [Compound 7, (S)-3-fluoro-5-(1-(3-((5-fluoro-2-(1-methyl-1H-pyrazol-5-yl)pyridin-4-yl)oxy)azetidine-1-carbonyl)-4,5-dihydro-1H-pyrazol-5-yl)benzonitrile] | 0.1 to 100
Cc1cc(F)cc(C2CC=NN2C(=O)N2CC(Oc3cc(-n4nc(C)c(C(N)=O)c4C)ncc3F)C2)c1 (stereo not drawn) [Compound 118, 1-(5-fluoro-4-((1-(5-(3-fluoro-5-methylphenyl)-4,5-dihydro-1H-pyrazole-1-carbonyl)azetidin-3-yl)oxy)pyridin-2-yl)-3,5-dimethyl-1H-pyrazole-4-carboxamide] | 0.1 to 100
CNC(=O)c1c(C)nn(-c2cc(OC3CN(C(=O)N4N=CC[C@H]4c4cncc(C#N)c4)C3)c(F)cn2)c1C [Compound 81, (S)-1-(4-((1-(5-(5-cyanopyridin-3-yl)-4,5-dihydro-1H-pyrazole-1-carbonyl)azetidin-3-yl)oxy)-5-fluoropyridin-2-yl)-N,3,5-trimethyl-1H-pyrazole-4-carboxamide] | 100 to 1000
COc1nccc(C)c1-c1cc(OC2CN(C(=O)N3N=CC[C@H]3c3cc(F)cc(F)c3)C2)c(F)cn1 [Compound 165, (S)-(5-(3,5-difluorophenyl)-4,5-dihydro-1H-pyrazol-1-yl)(3-((5-fluoro-2′-methoxy-4′-methyl-[2,3′-bipyridin]-4-yl)oxy)azetidin-1-yl)methanone] | 100 to 1000
Cc1nn(CC(N)=O)c(C)c1-c1cc(OC2CN(C(=O)N3N=CC[C@H]3c3cc(F)cc(C#N)c3)C2)c(F)cn1 [Compound 21, (S)-2-(4-(4-((1-(5-(3-cyano-5-fluorophenyl)-4,5-dihydro-1H-pyrazole-1-carbonyl)azetidin-3-yl)oxy)-5-fluoropyridin-2-yl)-3,5-dimethyl-1H-pyrazol-1-yl)acetamide] | 0.1 to 100
Cc1cnn(C)c1-c1ncc(F)c(OC2CN(C(=O)N3N=CC[C@H]3c3cc(F)cc(C#N)c3)C2)n1 [Compound 25, (S)-3-(1-(3-((2-(1,4-dimethyl-1H-pyrazol-5-yl)-5-fluoropyrimidin-4-yl)oxy)azetidine-1-carbonyl)-4,5-dihydro-1H-pyrazol-5-yl)-5-fluorobenzonitrile] | 0.1 to 100
Cc1nn(-c2cc(OC3CN(C(=O)N4N=CC[C@@H]4c4cccc(F)c4)C3)c(F)cn2)c(C)c1C(N)=O [Compound 98, (R)-1-(5-fluoro-4-((1-(5-(3-fluorophenyl)-4,5-dihydro-1H-pyrazole-1-carbonyl)azetidin-3-yl)oxy)pyridin-2-yl)-3,5-dimethyl-1H-pyrazole-4-carb oxamide] | 1000 to 10000
